The first assay concerns the target human GPR40 (Homo sapiens, UniProt O14842). The experiment in a line: Inositol Phosphate Turnover (IP1) Assay 2. It counts as cell-based. Details: expressed in transfected cells. As to conditions: HEK cells stably expressing human GPR40, Table 2, read-out: Human IP1. The procedure:
Human and mouse GPR40 stable cell-lines were generated in CHO cells stably expressing NFAT BLA (Beta-lactamase). A human GPR40 stable cell-line was generated in HEK cells stably expressing the aequorin expressing reporter. The expression plasmids were transfected using lipofectamine (Life Technologies) following manufacturer's instructions. Stable cell-lines were generated following drug selection.
The assay is performed in 384-well format. HEK cells stably expressing human GPR40 are plated at 15,000 cells per well in growth medium (DMEM/10% fetal calf serum). Cell plates are then incubated 16 hours at 37 degrees in a 5% CO2 incubator.
Measurement of Inositol Phosphate Turnover (IP1) is performed using the CisBio IP-One kit (Part number 62IPAPEB). After the 16 hour incubation, the cells are washed with HEPES buffer and 10 ul of stimulation buffer (prepared as described in the kit) is added to each well. In a separate plate, compounds are diluted in DMSO (400-fold over the final concentration in the assay well) and 25 nl is acoustically transferred to the appropriate well in the assay cell plate. The plates are then incubated for 60 minutes at 37 degrees. 10 ul of detection buffer (also prepared as described in the IP-One kit) is added to each well and the plates are incubated for 60 minutes in the dark. The plates are then read in a Perkin Elmer EnVision or equivalent reader able to measure FRET.
human GPR40, sequence (O14842 whole entry): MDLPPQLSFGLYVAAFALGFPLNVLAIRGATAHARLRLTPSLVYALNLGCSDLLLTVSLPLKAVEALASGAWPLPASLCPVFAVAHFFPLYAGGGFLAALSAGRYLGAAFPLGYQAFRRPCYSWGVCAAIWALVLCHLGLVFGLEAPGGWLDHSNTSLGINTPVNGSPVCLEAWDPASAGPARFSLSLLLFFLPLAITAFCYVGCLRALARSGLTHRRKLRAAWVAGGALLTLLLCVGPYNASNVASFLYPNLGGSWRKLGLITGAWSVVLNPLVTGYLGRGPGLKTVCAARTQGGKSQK
Regarding `COc1cc(-c2ccc(C3CCc4ccc([C@@H](CC(=O)O)C5CC5)cc4O3)cc2)c(F)cn1` (stereo partly drawn) [Example 71], the EC50 turned out to be 11 nM. `COc1ccc(Cl)c(-c2ccc(C3CCc4ccc([C@@H](CC(=O)O)C5CC5)cc4O3)c(F)c2)c1` (mixture of isomers) [Example 92]: the EC50 turned out to be 19 nM. The same measure, in the same setting: with `COc1ccc(F)c(-c2ccc(C3CCc4ccc(C(C5CCC5)C(C)C(=O)O)cc4O3)cc2)c1` (single isomer, unassigned) [Example 156] the figure was 209 nM; with `COc1cc(-c2ccc(C3CCc4ccc([C@@H](CC(=O)O)C5CC5)cc4O3)cc2)ccn1` (stereo partly drawn) [Example 74], 19 nM. On the same count and under the same terms, to `CSc1cccc(-c2ccc(C3CCc4ccc([C@@H](CC(=O)O)C5CC5)cc4O3)cc2)c1` (stereo partly drawn) [Example 81] belongs 165 nM. Same read-out and setting: with `COc1ccc(F)c(-c2ccc(C3CCc4ccc(C(C)CC(=O)O)cc4O3)cc2)c1` (single isomer, unassigned) [Example 140] the figure was 1230 nM; with `COc1cc(-c2ccc(C3CCc4ccc([C@H](C5CC5)[C@H](C)C(=O)O)cc4O3)cc2C(OC)C2CC2)c(F)cn1` (mixture of isomers) [Example 130], 0.9 nM. For the molecule `COc1cc(-c2ccc(C3CCc4ccc([C@H](C5CC5)[C@H](C)C(=O)O)cc4O3)nc2)ccn1` (single isomer, unassigned) [Example 120b], the EC50 amounted to 1.9 nM. The same measure, in the same setting: with `COc1cc(-c2ccc(C3CCc4ccc([C@H](C5CC5)[C@H](C)C(=O)O)cc4O3)c(F)c2)c(F)cn1` (single isomer, unassigned) [Example 109a] the figure was 0.17 nM; with `COc1cc(-c2ccc(C3CCc4ccc([C@H](C5CC5)[C@H](C)C(=O)O)cc4O3)c(F)c2)c(F)cn1` (single isomer, unassigned) [Example 109b], 1.2 nM; with `COc1ccc(F)c(-c2ccc(C3CCc4ccc([C@@H](CC(=O)O)C5CC5)cc4O3)cc2C(OC)C(C)(C)C)c1` (single isomer, unassigned) [Example 125a], 7.3 nM. In the case of `COc1ccc(F)c(-c2ccc(C3CCc4ccc([C@H](C5CC5)[C@H](C)C(=O)O)cc4O3)nc2C(OC)C(C)(C)C)c1` (single isomer, unassigned) [Example 135d], the EC50 was determined as 44 nM.

On to `COc1ccc(F)c(-c2ccc(C3CCc4ccc(C(C5CCC5)C(C)C(=O)O)cc4O3)cc2)c1` (single isomer, unassigned) [Example 155], for which the EC50 came out at 1 nM. In the case of `COc1ccc(F)c(-c2ccc(C3CCc4ccc([C@@H](CC(=O)O)C5CC5)cc4O3)c(F)c2)c1` (mixture of isomers) [Example 88], the EC50 amounted to 6.5 nM. Still for that read-out and setting: to `COc1ccc(F)c(-c2ccc(C3CCc4ccc([C@@H](CC(=O)O)C5CC5)cc4O3)nc2)c1` (mixture of isomers) [Example 104] belongs 16 nM; to `COc1ccc(F)c(-c2ccc([C@@H]3CCc4ccc([C@H](C5CC5)[C@H](C)C(=O)O)cc4O3)cc2)c1` (single isomer, unassigned) [Example 63], 3.3 nM. Regarding `COc1ccc(F)c(-c2ccc(C3CCc4ccc([C@H](C5CC5)[C@H](C)C(=O)O)cc4O3)nc2C(OC)C(C)(C)C)c1` (single isomer, unassigned) [Example 135a], the EC50 turned out to be 0.8 nM. Still for that read-out and setting: with `COc1ccc(F)c(-c2cnc(C3CCc4ccc([C@H](C5CC5)[C@H](C)C(=O)O)cc4O3)cn2)c1` (mixture of isomers) [Example 131] the figure was 1.7 nM; with `COc1cc(-c2cnc(C3CCc4ccc([C@H](C5CC5)[C@H](C)C(=O)O)cc4O3)c(F)c2)c(F)cn1` (single isomer, unassigned) [Example 110b], 1.6 nM; with `COc1ccc(F)c(-c2ccc([C@H]3CCc4ccc([C@H](C5CC5)[C@H](C)C(=O)O)cc4O3)cc2)c1` (single isomer, unassigned) [Example 64], 1.1 nM. Same read-out and setting: with `COc1ccc(F)c(-c2ccc(C3CCc4ccc([C@@H](CC(=O)O)C5CC5)cc4O3)cc2[C@H]2CCCC2(C)C)c1` (mixture of isomers) [Example 102] the figure was 66 nM; with `COc1cc(-c2ccc(C3CCc4ccc([C@H](C5CC5)[C@H](C)C(=O)O)cc4O3)nc2)ccn1` (single isomer, unassigned) [Example 120a], 4.4 nM. Still for that read-out and setting: with `COc1cc(-c2ccc(C3CCc4ccc([C@H](C5CC5)[C@H](C)C(=O)O)cc4O3)cc2)ccn1` (single isomer, unassigned) [Example 118b] the figure was 5.9 nM. Consider `COc1ccc(F)c(-c2ccc(C3CCc4ccc(C(CC(=O)O)C5CC5)cc4O3)cc2C2=CCCC2(C)C)c1` (single isomer, unassigned) [Example 101c], for which the EC50 was found to be 58 nM. As to `COc1ccc(F)c(-c2cnc(C3CCc4ccc([C@H](C5CC5)[C@H](C)C(=O)O)cc4O3)c(C)c2)c1` (single isomer, unassigned) [Example 115a], the EC50 was determined as 4.2 nM. As for `COc1ccc(F)c(-c2cnc(C3CCc4ccc([C@H](C5CC5)C(C)C(=O)O)cc4O3)nc2)c1` (single isomer, unassigned) [Example 124a], the EC50 was found to be 51 nM. Consider `COc1ccc(F)c(-c2ccc(C3CCc4ccc(C(CC(=O)O)C5CC5)cc4O3)cc2C2=CCCC2(C)C)c1` (single isomer, unassigned) [Example 101a], for which the EC50 worked out at 662 nM. In the case of `COc1cc(-c2ccc(C3CCc4ccc([C@H](C5CC5)[C@H](C)C(=O)O)cc4O3)cc2)c(F)cn1` (single isomer, unassigned) [Example 117b], the EC50 stood at 0.17 nM.

`COc1cccc(-c2ccc(C3CCc4ccc([C@@H](CC(=O)O)C5CC5)cc4O3)c(F)c2)c1` (mixture of isomers) [Example 90]: the EC50 was determined as 10.6 nM. Same read-out and setting: with `COc1ccc(F)c(-c2ccc(C3CCc4ccc([C@@H](CC(=O)O)C5CC5)cc4O3)cc2)c1` (stereo partly drawn) [Example 60, (3S)-3-cyclopropyl-3-(2-(2′-fluoro-5′-methoxy-[1,1′-biphenyl]-4-yl)chroman-7-yl)propanoic acid] the figure was 25 nM; with `COc1ccc(F)c(-c2ccc(C3CCc4ccc(C(CC(=O)O)C5CC5)cc4O3)cc2C2=CCCC2(C)C)c1` (single isomer, unassigned) [Example 101b], 704 nM; with `COc1ccc(F)c(-c2cc(F)c(C3CCc4ccc([C@H](C5CC5)[C@H](C)C(=O)O)cc4O3)nc2C)c1` (single isomer, unassigned) [Example 113b], 14 nM. `O=C(O)C[C@H](c1ccc2c(c1)OC(c1ccc(-c3cccc(OC4CC4)c3)cc1)CC2)C1CC1` (stereo partly drawn) [Example 78]: the EC50 turned out to be 1700 nM. Turning to `C[C@H](C(=O)O)[C@H](c1ccc2c(c1)OC(c1ccc(-c3cc(O)ccc3F)cc1)CC2)C1CC1` (single isomer, unassigned) [Example 68], the EC50 is 1.9 nM.

Take `O=C(O)C[C@H](c1ccc2c(c1)OC(c1ccc(-c3ccccc3)cc1)CC2)C1CC1` (mixture of isomers) [Example 80]: the EC50 was 130 nM. Same read-out and setting: with `COc1ccc(F)c(-c2ccc(C3CCc4ccc([C@@H](CC(=O)O)C5CC5)cc4O3)cc2)c1` (single isomer, unassigned) [Example 62] the figure was 18 nM; with `COc1ccc(F)c(-c2cnc(C3CCc4ccc([C@H](C5CC5)[C@H](C)C(=O)O)cc4O3)cc2OC)c1` (single isomer, unassigned) [Example 108a], 263 nM. Same read-out and setting: with `COc1cc(-c2ccc(C3CCc4ccc([C@H](C5CC5)[C@H](C)C(=O)O)cc4O3)c(F)c2)ccn1` (mixture of isomers) [Example 133, (2S,3R)-3-cyclopropyl-3-(2-(2-fluoro-4-(2-methoxypyridin-4-yl)phenyl)-chroman-7-yl)-2-methylpropanoic acid] the figure was 1.2 nM.

For the molecule `COc1ccc(F)c(-c2ccc(C3CCc4ccc([C@@H](CC(=O)O)C5CC5)cc4O3)cc2C(OC)C(F)(F)F)c1` (mixture of isomers) [Example 127], the EC50 was 41.5 nM. Turning to `COc1cc(-c2ccc(C3CCc4ccc([C@@H](CC(=O)O)C5CC5)cc4O3)c(F)c2)c(F)cn1` (mixture of isomers) [Example 91], the EC50 is 3.6 nM. Same read-out and setting: to `COc1ccc(F)c(-c2ccc(C3CCc4ccc([C@H](C5CC5)[C@H](C)C(=O)O)cc4O3)nc2)c1` (single isomer, unassigned) [Example 97c] belongs 2.9 nM.

The assay is the same for the next values; noted with them: HEK cells stably expressing human GPR40, Table 3, read-out: Human IP1 activity.
`COc1ccc(F)c(-c2ccc([C@@H]3COc4ccc([C@H](C5CC5)[C@H](C)C(=O)O)cc4O3)nc2C(F)(F)F)c1` [Example 164]: the EC50 came out at 8.2 nM.

As to `COc1ccc(F)c(-c2ccc(C3COc4ccc([C@H](C5CC5)[C@H](C)C(=O)O)cc4O3)cc2OC(F)(F)F)c1` (single isomer, unassigned) [Example 171], the EC50 came out at 2.6 nM. The same measure, in the same setting: to `COc1ccc(F)c(-c2ccc([C@H]3COc4ccc([C@H](C5CC5)[C@H](C)C(=O)O)cc4O3)cc2-c2cccc3ccn(C)c23)c1` [Example 181] belongs 8.3 nM. Same read-out and setting: to `CC#C[C@@H](CC(=O)O)c1ccc2c(c1)OCC(c1ccc(-c3cc(OC)ccc3F)cc1)O2` (single isomer, unassigned) [Example 176] belongs 774 nM.

For the origin of these results see US9840512B2, “Antidiabetic bicyclic compounds” (Merck Sharp & Dohme Corp., priority 2013, dated 2017).
